Results as given in US20250388582A1, “NOVEL BICYCLIC HETEROARYL COMPOUND AND USE THEREOF” (ILDONG PHARMACEUTICAL CO., LTD., priority 2022, published 2025).
pIC50: −log10 of the molar value.

Key:
[1] = Microsomal metabolic stability assay; type: in vitro ADME, human or CD1 male mouse; details: Clint class; 1 μM compound, 0.5 mg/ml microsomes, NADPH, UDPGA, Alamethicin; species not given
Method: The microsomal metabolic stability assay was performed using pooled human or CD1 male mouse interspecies microsomes. Supplemental cofactors (NADPH, UDPGA) and microsomal membrane pore-forming factor (Alamethicin) were added to promote cytochrome P450 (CYP), UGT reactivity to the target compound. Test compounds (1 μM incubation concentration) and microsomes (0.5 mg/ml incubation concentration) were diluted in 0.1 M phosphate buffer, pH 7.4, and incubated (37° C.). The reaction was initiated by the addition of NADPH (1 mM), UDPGA (1 mM) and Alamethicin (25 μg/mg). The incubation times were 0, 5, 15, 30, and 45 minutes, and at each time point, the reaction was terminated by adding acetonitrile containing internal standard (IS)(1:3 ratio). The plate was then sealed, centrifuged (3000 rpm, 20 min, 4° C.), and the supernatant was analyzed by LC-MS/MS. Hepatic extraction ratio values were calculated from the measured in vitro clearance and Intrinsic clearance (Clint) values were calculated from the assay results, and the respective Clint values were categorized into Low, Medium, and High categories based on the reference document (ref. Prostaglandins & other lipid mediators 136 (2018): 90-95).

human GST-PIKFYVE = target: T1, human GST-PIKFYVE (Homo sapiens, UniProt Q9Y2I7); experiment: ADP-Glo kinase assay, enzyme inhibition activity against human PIKFYVE (Carna biosciences); type: biochemical; details: inhibitory activity at final compound concentration 10 nM; 1 hour at room temperature
T1 construct: GST; purchased Carna biosciences 11-118
Summary of the method: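 Human GST-PIKFYVE (glutathione Sepharose-purified) was reacted with substrate and ATP for 1 h at room temperature in 50 mM MOPS, 1 mM DTT, pH 7.2, with compound at 10 nM final. ADP formed was read by ADP-Glo luminescence; inhibition was calculated against no-enzyme (100%) and no-compound (0%) controls.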

PIKFYVE = target: T2, PIKFYVE (Homo sapiens, UniProt Q9Y2I7); experiment: NanoBRET TE Intracellular Kinase Assay, interaction of PIKFYVE and compounds in HEK293 cells; type: cell-based; details: IC50 class from BRET; HEK293 cells expressing PIKFYVE-NanoLuc; 2 hours incubation
T2 construct: host or cells: HEK293 (ATCC, CRL-1573)
Summary of the method: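 HEK293 cells transiently expressing a PIKFYVE-NanoLuc fusion were incubated 2 h at 37 °C, 5% CO2 with compound plus NanoBRET tracer. BRET was read after adding Nano-Glo substrate, giving intracellular target engagement by tracer displacement.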

T2 sequence (Q9Y2I7 whole entry): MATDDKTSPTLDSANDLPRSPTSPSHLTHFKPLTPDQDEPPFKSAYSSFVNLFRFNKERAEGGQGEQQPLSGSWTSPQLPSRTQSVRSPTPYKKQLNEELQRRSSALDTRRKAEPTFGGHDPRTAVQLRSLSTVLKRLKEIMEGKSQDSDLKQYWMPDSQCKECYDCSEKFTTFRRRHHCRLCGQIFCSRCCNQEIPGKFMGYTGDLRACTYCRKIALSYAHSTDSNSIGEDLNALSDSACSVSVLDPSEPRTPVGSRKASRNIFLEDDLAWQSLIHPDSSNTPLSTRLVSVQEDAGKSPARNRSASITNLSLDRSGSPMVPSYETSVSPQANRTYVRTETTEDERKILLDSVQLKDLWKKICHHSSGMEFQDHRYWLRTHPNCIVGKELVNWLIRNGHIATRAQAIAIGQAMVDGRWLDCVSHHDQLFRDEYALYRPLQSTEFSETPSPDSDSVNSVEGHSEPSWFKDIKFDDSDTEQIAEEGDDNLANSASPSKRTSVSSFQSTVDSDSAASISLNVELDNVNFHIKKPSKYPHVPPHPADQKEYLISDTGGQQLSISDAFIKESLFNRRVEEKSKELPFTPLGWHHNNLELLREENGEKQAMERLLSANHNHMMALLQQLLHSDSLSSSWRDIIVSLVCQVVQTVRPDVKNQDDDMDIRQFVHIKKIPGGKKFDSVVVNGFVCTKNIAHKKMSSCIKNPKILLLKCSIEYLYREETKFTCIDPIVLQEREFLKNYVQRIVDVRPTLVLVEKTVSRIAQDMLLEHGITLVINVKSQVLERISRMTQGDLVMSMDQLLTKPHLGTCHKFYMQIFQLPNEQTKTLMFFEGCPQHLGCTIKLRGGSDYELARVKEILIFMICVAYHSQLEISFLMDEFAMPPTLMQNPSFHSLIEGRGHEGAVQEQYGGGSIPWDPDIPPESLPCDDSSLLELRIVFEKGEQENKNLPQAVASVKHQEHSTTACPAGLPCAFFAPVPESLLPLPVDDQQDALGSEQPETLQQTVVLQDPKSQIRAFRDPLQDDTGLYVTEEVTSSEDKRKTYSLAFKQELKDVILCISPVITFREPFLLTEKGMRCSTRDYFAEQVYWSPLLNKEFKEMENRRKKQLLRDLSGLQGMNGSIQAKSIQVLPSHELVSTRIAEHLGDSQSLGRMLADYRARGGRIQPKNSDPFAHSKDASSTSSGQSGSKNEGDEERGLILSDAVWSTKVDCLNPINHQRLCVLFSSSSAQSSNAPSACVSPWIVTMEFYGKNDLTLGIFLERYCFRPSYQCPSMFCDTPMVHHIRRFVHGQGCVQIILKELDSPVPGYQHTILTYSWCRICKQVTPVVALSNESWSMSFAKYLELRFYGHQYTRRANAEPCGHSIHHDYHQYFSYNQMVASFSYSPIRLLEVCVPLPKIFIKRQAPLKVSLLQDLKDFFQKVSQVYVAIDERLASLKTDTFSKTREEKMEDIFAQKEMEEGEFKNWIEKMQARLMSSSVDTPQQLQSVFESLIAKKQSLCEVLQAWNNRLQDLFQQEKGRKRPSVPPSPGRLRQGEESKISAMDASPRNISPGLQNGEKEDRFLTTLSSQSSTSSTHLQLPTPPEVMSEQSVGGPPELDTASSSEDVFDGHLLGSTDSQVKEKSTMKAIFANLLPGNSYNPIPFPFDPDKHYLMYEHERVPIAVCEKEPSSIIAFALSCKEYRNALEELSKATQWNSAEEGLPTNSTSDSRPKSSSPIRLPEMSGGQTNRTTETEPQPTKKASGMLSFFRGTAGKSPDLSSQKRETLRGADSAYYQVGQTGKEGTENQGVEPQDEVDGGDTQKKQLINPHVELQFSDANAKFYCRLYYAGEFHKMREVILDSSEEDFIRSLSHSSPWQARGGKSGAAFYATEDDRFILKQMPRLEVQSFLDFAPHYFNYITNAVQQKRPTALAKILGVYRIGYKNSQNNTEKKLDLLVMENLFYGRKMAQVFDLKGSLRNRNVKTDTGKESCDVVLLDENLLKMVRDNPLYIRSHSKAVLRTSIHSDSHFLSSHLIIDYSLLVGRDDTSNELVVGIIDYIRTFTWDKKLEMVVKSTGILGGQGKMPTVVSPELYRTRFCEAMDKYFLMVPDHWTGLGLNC
T1 sequence (Q9Y2I7 whole entry): as above

| Microsomal metabolic stability [1] | ADP-Glo kinase assay (%, 10 nM) (human GST-PIKFYVE) [%] | pIC50 (PIKFYVE) | SMILES |
| --- | --- | --- | --- |
| Medium (Medium 8.8~48,) | 89.77 | ≥ 8.00 | Cc1cccc(/C=N/Nc2nc(N3CCOCC3)nc3c2ncn3-c2sc(C)nc2C)c1 [Example 111, (E)-4-(9-(2,4-dimethylthiazol-5-yl)-6-(2-(3-methylbenzylidene)hydrazinyl)-9H-purin-2-yl)morpholine] |
| medium | 73.72 | 7.70 to 8.00 | Cc1cccc(/C=N/Nc2nc(N3CCOCC3)nc3c2nc(C)n3-c2ccccc2)c1 [Example 165, (E)-4-(8-methyl-6-(2-(3-methylbenzylidene)hydrazinyl)-9-phenyl-9H-purin-2-yl)morpholine] |
| Medium (Medium 8.8~48,) | 81.70 | ≥ 8.00 | Cc1cccc(/C=N/Nc2nc(N3CCOCC3)nc3c(-c4cccnc4)cccc23)c1 [Example 215, (E)-4-(4-(2-(3-methylbenzylidene)hydrazinyl)-8-(pyridin-3-yl)quinazolin-2-yl)morpholine] |
| Medium (Medium 8.8~48,) | 85.95 | ≥ 8.00 | Cc1cccc(/C=N/Nc2nc(N3CCOCC3)nc3c2ncn3-c2cccnc2)c1 [Example 96, (E)-4-(6-(2-(3-methylbenzylidene)hydrazinyl)-9-(pyridin-3-yl)-9H-purin-2-yl)morpholine] |
| Medium (Medium 8.8~48,) | 72.15 | 7.70 to 8.00 | O=C(Cn1cnc2c(N/N=C/c3c[nH]c4ccccc34)nc(N3CCOCC3)nc21)c1ccccn1 [Example 24, (E)-2-(6-(2-((1H-indol-3-yl)methylene)hydrazinyl)-2-morpholino-9H-purin-9-yl)-1-(pyridin-2-yl)ethan-1-one] |
